These results are taken from ChEMBL document CHEMBL1125522, “2,3-Epoxy-10-aza-10,11-dihydrosqualene, a high-energy intermediate analogue inhibitor of 2,3-oxidosqualene cyclase” (J Med Chem, 1992).

Test [1] addresses T1, Lanosterol synthase (Rattus norvegicus, UniProt P48450).
T1 sequence (P48450 whole entry): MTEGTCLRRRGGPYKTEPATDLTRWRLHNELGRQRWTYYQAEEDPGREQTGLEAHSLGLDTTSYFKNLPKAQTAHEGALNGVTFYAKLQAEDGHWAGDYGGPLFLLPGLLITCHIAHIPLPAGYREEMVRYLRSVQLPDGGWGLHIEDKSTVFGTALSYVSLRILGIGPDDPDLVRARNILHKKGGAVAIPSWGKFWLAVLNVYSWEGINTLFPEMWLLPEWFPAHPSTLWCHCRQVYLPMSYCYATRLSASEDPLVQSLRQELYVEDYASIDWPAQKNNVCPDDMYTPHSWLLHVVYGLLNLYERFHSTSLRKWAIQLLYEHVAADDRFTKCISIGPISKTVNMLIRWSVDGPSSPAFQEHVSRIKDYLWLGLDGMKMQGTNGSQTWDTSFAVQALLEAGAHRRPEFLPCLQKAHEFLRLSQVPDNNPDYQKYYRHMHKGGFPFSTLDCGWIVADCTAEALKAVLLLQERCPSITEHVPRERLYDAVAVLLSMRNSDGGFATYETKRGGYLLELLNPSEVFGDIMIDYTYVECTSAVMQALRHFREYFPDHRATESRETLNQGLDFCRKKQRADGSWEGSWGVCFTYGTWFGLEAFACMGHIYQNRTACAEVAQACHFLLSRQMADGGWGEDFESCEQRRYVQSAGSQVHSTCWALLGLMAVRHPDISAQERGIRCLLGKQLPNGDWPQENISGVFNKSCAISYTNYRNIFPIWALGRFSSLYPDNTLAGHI
Nature of the test: Compound was evaluated for the inhibition of microsomal 2,3-oxidosqualene cyclase in rat liver microsomes. Details: species or system Microsome. The settings on record: read-out: I50.

Test [2] deals with T1, Lanosterol synthase. The test can be described thus: Compound was evaluated for the inhibition of microsomal 2,3-oxidosqualene-lanosterol cyclase in rat liver microsomes. Details: species or system Microsome. The settings on record: read-out: I50.

Turning to `CC(C)=CCC/C(C)=C/CCC(C)=CCCCN(C)CC/C=C(/C)CCC1OC1(C)C` (configuration not stated), the IC50 in test [1] was over 20 µM. For `CC(C)=CCC/C(C)=C/CC/C(C)=C/CCCN(C)CC/C=C(\C)CCC1OC1(C)C` (configuration not stated), the IC50 in test [2] was 4.8 µM.
